ChEMBL document CHEMBL1909294, “Translating clinical findings into knowledge in drug safety evaluation--drug induced liver injury prediction system (DILIps)” (PLoS Comput Biol, 2011)

What was measured:
Hepatotoxicity [1] = test system: Hepatotoxicity;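 as to HepSE bilirubinemia: bilirubinemia hepatic side effect score drawn from the DILIps training data, a prediction system for drug-induced liver injury; call rule not given here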;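 as to HepSE cholecystitis: Cholecystitis-related hepatic side effect score drawn from the DILIps (drug-induced liver injury prediction) training data set; call rule not given here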;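 as to HepSE cholelithiasis: hepatic side effect score for cholelithiasis, drawn from the DILIps training data for predicting drug-induced liver injury; call rule not given here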;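 as to HepSE cirrhosis: cirrhosis hepatic side effect score taken from the DILIps (drug-induced liver injury prediction) training set; call rule not given here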;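 as to HepSE elevated liver function tests: hepatic side effect score for raised liver function tests, as recorded in the DILIps training set used for predicting drug-induced liver injury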; as to HepSE hepatic failure: call rule not given here;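 as to HepSE hepatomegaly: hepatic side effect score for hepatomegaly, taken from the training set of the DILIps drug-induced liver injury prediction system; call rule not given here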
Hepatotoxicity [2] = test system: Hepatotoxicity; remark: listed apart in the source;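 as to HepSE bilirubinemia: bilirubinemia hepatic side effect score drawn from the DILIps training data, a prediction system for drug-induced liver injury; call rule not given here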;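 as to HepSE cholecystitis: Cholecystitis-related hepatic side effect score drawn from the DILIps (drug-induced liver injury prediction) training data set; call rule not given here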;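 as to HepSE cholelithiasis: hepatic side effect score for cholelithiasis, drawn from the DILIps training data for predicting drug-induced liver injury; call rule not given here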;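 as to HepSE cirrhosis: cirrhosis hepatic side effect score taken from the DILIps (drug-induced liver injury prediction) training set; call rule not given here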;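 as to HepSE elevated liver function tests: hepatic side effect score for raised liver function tests, as recorded in the DILIps training set used for predicting drug-induced liver injury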; as to HepSE hepatic failure: call rule not given here
Hepatotoxicity [3] = test system: Hepatotoxicity; remark: listed apart in the source;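 as to HepSE bilirubinemia: bilirubinemia hepatic side effect score drawn from the DILIps training data, a prediction system for drug-induced liver injury; call rule not given here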;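 as to HepSE cholecystitis: Cholecystitis-related hepatic side effect score drawn from the DILIps (drug-induced liver injury prediction) training data set; call rule not given here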;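 as to HepSE cholelithiasis: hepatic side effect score for cholelithiasis, drawn from the DILIps training data for predicting drug-induced liver injury; call rule not given here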;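 as to HepSE cirrhosis: cirrhosis hepatic side effect score taken from the DILIps (drug-induced liver injury prediction) training set; call rule not given here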;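 as to HepSE elevated liver function tests: hepatic side effect score for raised liver function tests, as recorded in the DILIps training set used for predicting drug-induced liver injury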; as to HepSE hepatic failure: call rule not given here
Hepatotoxicity [4] = test system: Hepatotoxicity; remark: listed apart in the source;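 as to HepSE bilirubinemia: bilirubinemia hepatic side effect score drawn from the DILIps training data, a prediction system for drug-induced liver injury; call rule not given here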;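 as to HepSE cholecystitis: Cholecystitis-related hepatic side effect score drawn from the DILIps (drug-induced liver injury prediction) training data set; call rule not given here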;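 as to HepSE cholelithiasis: hepatic side effect score for cholelithiasis, drawn from the DILIps training data for predicting drug-induced liver injury; call rule not given here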;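 as to HepSE cirrhosis: cirrhosis hepatic side effect score taken from the DILIps (drug-induced liver injury prediction) training set; call rule not given here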;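 as to HepSE elevated liver function tests: hepatic side effect score for raised liver function tests, as recorded in the DILIps training set used for predicting drug-induced liver injury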; as to HepSE hepatic failure: call rule not given here
Hepatotoxicity [5] = test system: Hepatotoxicity; remark: listed apart in the source; as to HepSE hepatic failure: call rule not given here
Hepatotoxicity [6] = test system: Hepatotoxicity; remark: listed apart in the source; as to HepSE hepatic failure: call rule not given here
Hepatotoxicity [7] = test system: Hepatotoxicity; remark: listed apart in the source
Hepatotoxicity [8] = test system: Hepatotoxicity; remark: listed apart in the source
Hepatotoxicity [9] = test system: Hepatotoxicity; remark: listed apart in the source
Hepatotoxicity [10] = test system: Hepatotoxicity; remark: listed apart in the source
Hepatotoxicity [11] = test system: Hepatotoxicity; remark: listed apart in the source
Hepatotoxicity [12] = test system: Hepatotoxicity; remark: listed apart in the source
Hepatotoxicity [13] = test system: Hepatotoxicity; remark: listed apart in the source
Hepatotoxicity [14] = test system: Hepatotoxicity; remark: listed apart in the source

SMILES	HepSE_bilirubinemia (Hepatotoxicity [1])	HepSE_cholecystitis (Hepatotoxicity [2])	HepSE_cholelithiasis (Hepatotoxicity [3])	HepSE_cirrhosis (Hepatotoxicity [4])	HepSE_elevated liver function tests (Hepatotoxicity [5])	HepSE_hepatic failure (Hepatotoxicity [6])	HepSE_hepatic necrosis (Hepatotoxicity [7])	HepSE_hepatitis (Hepatotoxicity [8])	HepSE_hepatomegaly (Hepatotoxicity [9])	HepSE_jaundice (Hepatotoxicity [10])	HepSE_liver disease (Hepatotoxicity [11])	HepSE_liver fatty (Hepatotoxicity [12])	HepSE_liver function tests abnormal (Hepatotoxicity [13])	HepSE_Combined Scores (Hepatotoxicity [14])	further results
CCN(CC)CCOC(=O)c1ccc(N)cc1 [PROCAINE]	0	0	0	0	0	0	0	0	0	0	0	0	0	0	
CNNCc1ccc(C(=O)NC(C)C)cc1 [PROCARBAZINE]	0	0	0	0	0	0	0	0	0	1	0	0	0	1	
CN1CCN(CCCN2c3ccccc3Sc3ccc(Cl)cc32)CC1 [PROCHLORPERAZINE]	0	0	0	0	0	0	0	0	0	1	0	0	0	1	
OC(CCN1CCCC1)(c1ccccc1)C1CCCCC1 (configuration not stated) [PROCYCLIDINE]	0	0	0	0	0	0	0	0	0	0	0	0	0	0	
CC(=O)[C@H]1CC[C@H]2[C@@H]3CCC4=CC(=O)CC[C@]4(C)[C@H]3CC[C@]12C [PROGESTERONE]	0	0	0	0	0	1	1	1	0	1	0	0	0	4	
CC(CN1c2ccccc2Sc2ccccc21)N(C)C (configuration not stated) [PROMETHAZINE]	0	0	0	0	0	0	0	0	0	1	0	0	0	1	
CC(C)[N+](C)(CCOC(=O)C1c2ccccc2Oc2ccccc21)C(C)C [PROPANTHELINE]	0	0	0	0	0	0	0	0	0	0	0	0	0	0	
CCCOc1ccc(C(=O)OCCN(CC)CC)cc1N [PROPARACAINE]	0	0	0	0	0	0	0	0	0	0	0	0	0	0	
CC(C)c1cccc(C(C)C)c1O [PROPOFOL]															HepSE_bilirubinemia (Hepatotoxicity [1]; Liver): 0; HepSE_cholecystitis (Hepatotoxicity [2]; Liver): 0; HepSE_cholelithiasis (Hepatotoxicity [3]; Liver): 0; HepSE_cirrhosis (Hepatotoxicity [4]; Liver): 0; HepSE_elevated liver function tests (Hepatotoxicity [5]; Liver): 0; HepSE_hepatic failure (Hepatotoxicity [6]; Liver): 0; HepSE_hepatic necrosis (Hepatotoxicity [7]; Liver): 0; HepSE_hepatitis (Hepatotoxicity [8]; Liver): 0; HepSE_hepatomegaly (Hepatotoxicity [9]; Liver): 1; HepSE_jaundice (Hepatotoxicity [10]; Liver): 0; HepSE_liver disease (Hepatotoxicity [11]; Liver): 0; HepSE_liver fatty (Hepatotoxicity [12]; Liver): 0; HepSE_liver function tests abnormal (Hepatotoxicity [13]; Liver): 0; HepSE_Combined Scores (Hepatotoxicity [14]; Liver): 1
CCC(=O)O[C@](Cc1ccccc1)(c1ccccc1)[C@H](C)CN(C)C [PROPOXYPHENE]	0	0	0	0	0	0	0	0	0	1	0	0	1	2	
CC(C)NCC(O)COc1cccc2ccccc12 (configuration not stated) [PROPRANOLOL]	0	0	0	0	0	0	0	0	0	0	0	0	0	0	
CCCc1cc(=O)[nH]c(=S)[nH]1 [PROPYLTHIOURACIL]															HepSE_bilirubinemia (Hepatotoxicity [1]; Liver): 0; HepSE_cholecystitis (Hepatotoxicity [2]; Liver): 0; HepSE_cholelithiasis (Hepatotoxicity [3]; Liver): 0; HepSE_cirrhosis (Hepatotoxicity [4]; Liver): 0; HepSE_elevated liver function tests (Hepatotoxicity [5]; Liver): 0; HepSE_hepatic failure (Hepatotoxicity [6]; Liver): 0; HepSE_hepatic necrosis (Hepatotoxicity [7]; Liver): 0; HepSE_hepatitis (Hepatotoxicity [8]; Liver): 1; HepSE_hepatomegaly (Hepatotoxicity [9]; Liver): 0; HepSE_jaundice (Hepatotoxicity [10]; Liver): 1; HepSE_liver disease (Hepatotoxicity [11]; Liver): 0; HepSE_liver fatty (Hepatotoxicity [12]; Liver): 0; HepSE_liver function tests abnormal (Hepatotoxicity [13]; Liver): 0; HepSE_Combined Scores (Hepatotoxicity [14]; Liver): 2
CNCCCC1c2ccccc2C=Cc2ccccc21 [PROTRIPTYLINE]															HepSE_bilirubinemia (Hepatotoxicity [1]; Liver): 0; HepSE_cholecystitis (Hepatotoxicity [2]; Liver): 0; HepSE_cholelithiasis (Hepatotoxicity [3]; Liver): 0; HepSE_cirrhosis (Hepatotoxicity [4]; Liver): 0; HepSE_elevated liver function tests (Hepatotoxicity [5]; Liver): 0; HepSE_hepatic failure (Hepatotoxicity [6]; Liver): 0; HepSE_hepatic necrosis (Hepatotoxicity [7]; Liver): 0; HepSE_hepatitis (Hepatotoxicity [8]; Liver): 0; HepSE_hepatomegaly (Hepatotoxicity [9]; Liver): 0; HepSE_jaundice (Hepatotoxicity [10]; Liver): 1; HepSE_liver disease (Hepatotoxicity [11]; Liver): 0; HepSE_liver fatty (Hepatotoxicity [12]; Liver): 0; HepSE_liver function tests abnormal (Hepatotoxicity [13]; Liver): 0; HepSE_Combined Scores (Hepatotoxicity [14]; Liver): 1
NC(=O)c1cnccn1 [PYRAZINAMIDE]	0	0	0	0	0	0	0	0	0	0	0	0	0	0	
CN(C)C(=O)Oc1ccc[n+](C)c1 [PYRIDOSTIGMINE]	0	0	0	0	0	0	0	0	0	0	0	0	0	0	
CCc1nc(N)nc(N)c1-c1ccc(Cl)cc1 [PYRIMETHAMINE]	0	0	0	0	0	0	0	0	0	0	0	0	0	0	
OCCOCCN1CCN(C2=Nc3ccccc3Sc3ccccc32)CC1 [QUETIAPINE]															HepSE_bilirubinemia (Hepatotoxicity [1]; Liver): 0; HepSE_cholecystitis (Hepatotoxicity [2]; Liver): 0; HepSE_cholelithiasis (Hepatotoxicity [3]; Liver): 0; HepSE_cirrhosis (Hepatotoxicity [4]; Liver): 0; HepSE_elevated liver function tests (Hepatotoxicity [5]; Liver): 0; HepSE_hepatic failure (Hepatotoxicity [6]; Liver): 0; HepSE_hepatic necrosis (Hepatotoxicity [7]; Liver): 0; HepSE_hepatitis (Hepatotoxicity [8]; Liver): 0; HepSE_hepatomegaly (Hepatotoxicity [9]; Liver): 0; HepSE_jaundice (Hepatotoxicity [10]; Liver): 0; HepSE_liver disease (Hepatotoxicity [11]; Liver): 0; HepSE_liver fatty (Hepatotoxicity [12]; Liver): 0; HepSE_liver function tests abnormal (Hepatotoxicity [13]; Liver): 0; HepSE_Combined Scores (Hepatotoxicity [14]; Liver): 0
C=C[C@H]1C[N@@]2CC[C@H]1C[C@@H]2[C@@H](O)c1ccnc2ccc(OC)cc12 [QUINIDINE]	0	0	0	0	0	0	0	1	0	1	0	0	1	3	
